“And” between values parts separate entries of the source, which are not always exact repeats. Equal entries are not always repeated. Where two headings read alike, the source gives them in different places. Marks after values point to notes of the source that are not given here. Blank lines part the entries; values can stand above or below the compound they belong to.
Columns and labels:
[1] = cited from earlier work
[2] = cited from earlier work; for fu (fraction unbound in plasma): ref 15 (probenecid), 16 (ibuprofen), 17, 18 (diclofenac)
OAT3 = details: read-out: IC50 OAT3, pemetrexed as substrate, cited from earlier work
[3] = cited from earlier work; remark: listed apart in the source
[4] = cited from earlier work; remark: listed apart in the source
[5] = Plasma concentrations used to calculate DDI indices and R values; type: in vivo, human; details: estimated from published Cmax and unbound fraction
[6] = Pharmacokinetic input parameters of the PBPK models; type: in vivo, human
MATE2-K = MATE2-K (Homo sapiens, UniProt Q86VL8); assay: Inhibition of the MATE2-K-mediated uptake of baricitinib; type: in vitro ADME; details: for IC50: IC50 MATE2-K (mean), substrate 0.25 μM baricitinib, 0.5 min; for DDI index ([Iu]/IC50), MATE2-K: baricitinib as substrate
[7] = Clinical baricitinib-probenecid DDI study in healthy subjects; type: in vivo, human
PBPK modeling = assay: PBPK modeling; set-up: species or system human
[8] = published mean (CV) or range, ref 45 (ibuprofen), 17 (diclofenac)

Sequence of MATE2-K (Q86VL8 1-566 isoform Q86VL8-3): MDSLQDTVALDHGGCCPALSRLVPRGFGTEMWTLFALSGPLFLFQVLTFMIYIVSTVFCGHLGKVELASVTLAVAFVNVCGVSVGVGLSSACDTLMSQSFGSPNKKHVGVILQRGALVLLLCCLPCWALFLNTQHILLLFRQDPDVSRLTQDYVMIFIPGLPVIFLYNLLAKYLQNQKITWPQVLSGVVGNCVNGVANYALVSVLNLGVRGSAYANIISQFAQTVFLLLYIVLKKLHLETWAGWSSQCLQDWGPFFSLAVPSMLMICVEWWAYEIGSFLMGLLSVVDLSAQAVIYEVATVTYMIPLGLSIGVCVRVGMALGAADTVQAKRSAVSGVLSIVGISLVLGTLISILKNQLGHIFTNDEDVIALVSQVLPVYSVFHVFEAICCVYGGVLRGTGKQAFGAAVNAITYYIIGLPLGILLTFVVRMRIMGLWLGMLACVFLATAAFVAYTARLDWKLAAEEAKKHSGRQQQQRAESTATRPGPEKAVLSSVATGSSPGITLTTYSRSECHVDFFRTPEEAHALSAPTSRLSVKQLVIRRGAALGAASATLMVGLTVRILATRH

SMILES: CC(C)Cc1ccc(C(C)C(=O)O)cc1 (stereo not shown) [Ibuprofen]
- fu (fraction unbound in plasma) [2]: 0.018
- AUC observed [3, 8]: 218 (23) ^a μg·h/mL

SMILES: CCOC(=O)C1=C[C@@H](OC(CC)CC)[C@H](NC(C)=O)[C@@H](N)C1 [oseltamivir]
- decrease of clearance by probenecid [3]: 32%

- Cmax unbound inhibitor [Iu] [5]: 600 nM
SMILES: CN(Cc1cnc2nc(N)nc(N)c2n1)c1ccc(C(=O)N[C@@H](CCC(=O)O)C(=O)O)cc1 [Methotrexate]
- plasma bound [2]: e 15 mg s.c. dose, 46% plasma bound.30

- ka (first-order absorption rate constant) ([6]; calculated as 1/gastric emptying time): 6 h^‐1
- Cmax unbound inhibitor [Iu] [5]: 30 nM
SMILES: O=C(O)Cc1ccccc1Nc1c(Cl)cccc1Cl [Diclofenac]
- plasma bound [2]: d 100 mg oral dose, 99.7% bound to plasma.30
- fu (fraction unbound in plasma) [2]: 0.003
- AUC observed [3, 8]: 2.7 – 4.4 ^b μg·h/mL
- Cmax observed [3, 8]: 1.2 – 3.6 ^b μg/mL
- Clearance (i.v.) ([4]; i.v., scaled by body weight to Simcyp population): Clearance = 20 ^a (i.v.) L/h

SMILES: NS(=O)(=O)c1cc(C(=O)O)c(NCc2ccco2)cc1Cl [furosemide]
- decrease of CLr by probenecid [3]: 66%

- Inhibition of MATE2-K-mediated baricitinib transport (in words) (MATE2-K; probenecid 0–200 μM, cimetidine, pyrimethamine 0–100 μM): did not inhibit
- Cmax ([7]; human, plasma, oral, 1000 mg): 145 µg/mL
- Tmax ([7]; human, plasma, oral, 1000 mg b.i.d.): 2 h
- Css,ave observed ([7]; probenecid 1,000 mg BID): 115 µg/mL
- trough plasma concentration (Cmin) ([7]; probenecid 1,000 mg b.i.d.): 88 µg/mL
- Observed/Predicted Css,ave (PBPK modeling): 1.0
- CL/F ([6]; human, plasma, po, 2000 mg/day): 12.2 mL/min
- Cmax unbound inhibitor [Iu] [5]: 22100 nM
SMILES: CCCN(CCC)S(=O)(=O)c1ccc(C(=O)O)cc1 [Probenecid]
- tolerability ([7]; healthy subjects, all drug-related treatment-emergent AEs mild): well tolerated
- plasma bound [2]: a 1 g oral dose, 91% plasma bound.29
- Fa (fraction absorbed) ([4]; ref 20 (probenecid), 21 (ibuprofen), 17 (diclofenac)): 1

- IC50 (MATE2-K): 5.1 µM
- DDI index ([Iu]/IC50), MATE2-K (MATE2-K): 1.57 and 1.6
- Cmax unbound inhibitor [Iu] [5]: 7900 nM
SMILES: CN/C(=N/CCSCc1nc[nH]c1C)NC#N [Cimetidine]
- plasma bound [2]: f 400 mg oral dose, 20% plasma bound.31

- IC50 (MATE2-K): 0.25 µM
- DDI index ([Iu]/IC50), MATE2-K (MATE2-K): 0.5
- DDI index ([Iu]/IC50), MATE2-K (MATE2-K; listed as pyrimethamine): 0.49
- Cmax unbound inhibitor [Iu] [5]: 100 nM
SMILES: CCc1nc(N)nc(N)c1-c1ccc(Cl)cc1 [Pyrimethamine]
- plasma bound [2]: g 25 mg oral dose, 87% plasma bound.32

From article PMC6402191 (Clinical and Translational Science, 2017)
